From US8709420B2 (GlaxoSmithKline Intellectual Property Limited, priority 2010, dated 2014)
In brackets after ≈: the same amount, converted by molar mass. Where two headings read alike, the source gives them in different places.

How the values were obtained:
[1] = system: SH-SY5Y neuroblastoma cell line; test: In-vitro cytotoxicity, Alamar Blue cell viability; assay type: cell-based; settings: 72 h
Excerpt: (§1) SK-N-BE(2) (MYCN amplified) and SH-SY5Y (non-MYCN amplified neuroblastoma cell lines) were obtained from American Type Culture Collection (ATCC) (Manassas, Va.); BE(2)-c sub-clone of SK-N-BE(2) was obtained from Dr. Michelle Haber (Children's Cancer Institute for Medical Research, Lowry Cancer Research Centre, Randwick, Australia); Human Umbilical Vein Endothelial Cells (HUVECs) were obtained from Dr. Herman Yeger (The Hospital for Sick Children, Toronto, Ontario, Canada) and Tumor Initiating (TIC) cell lines NB12 and NB88, were obtained from Dr. David Kaplan (The Hospital for Sick Children, Toronto, Ontario, Canada). TICs NB12 and NB88 were isolated from the bone marrow metastases of relapsed high-risk neuroblastoma patients. Neuroblastoma cell lines SK-N-BE(2) and SH-SY5Y were grown in alpha-MEM containing 10% fetal bovine serum and 1% antibiotic mixture in humidified atmosphere at 37° C. with 5% CO2. NB12 and NB 88 were cultured as described previously.
(§2) Cell viability was determined by Alamar Blue assay. Alamar blue (10% of total volume was added to each well three hours prior to fluorometric detection). Fluorometric detection was performed using the SPECTRAmax gemini Spectrophotometer at excitation wavelength of 540 nm and emission wavelength of 590 nm.

[2] = system: SK-N-BE(2) neuroblastoma cell line; test: In-vitro cytotoxicity, Alamar Blue cell viability; assay type: cell-based; settings: for IC50: Homo sapiens, SKNBE2, 72 h
Excerpt: as §1, §2

Rh30 xenograft = test: RH30 rhabdomyosarcoma mouse xenograft model; settings: for tumor growth rate: daily oral up to 56 days, pazopanib 150 mg/Kg, LDM topotecan 1.0 mg/kg, combination both
[3] = system: RD rhabdomyosarcoma cell line; assay type: cell-based
Procedure: (§3) Materials: The cells were cultured at 37° C. in 5% CO2 in a-MEM (Multicell; Wisent, Inc., St. Bruno, Quebec, Canada) with 10% fetal bovine serum (FBS; Life Technologies, Grand Island, N.Y.) and 1% antibiotic mixture, containing 10000 IU penicillin and 10000 μg/ml streptomycin (Multicell; Wisent, Inc., St. Bruno, Quebec, Canada). Trypsin-EDTA, containing 0.05% trypsin and 0.53 mM EDTA was also purchased from Multicell; Wisent, Inc., St. Bruno, Quebec, Canada.
(§4) Procedure: A total of 20,000 cells were plated in each well of 48 well-plates and incubated at 37° C. in 5% CO2. After 48 h, the cells were treated with various concentrations of drugs. After 72 h of treatment, the cell viability was determined by alamar blue assay.

[4] = system: KHOS osteosarcoma cell line; assay type: cell-based
Procedure: as §3, §4

[5] = system: Rh30 rhabdomyosarcoma cell line; assay type: cell-based
Procedure: as §3, §4

[6] = Pharmacokinetics of topotecan and pazopanib in non-tumor bearing animals; assay type: in vivo, mice
Procedure: Non-tumor bearing animals were randomized into four groups (n=3): Control, PZ, TP and TP+PZ. The doses of the drugs were the same as for the inguinal xenograft and metastatic models described above.
After single drug administration, the saphenous vein blood samples (30 μl) were collected in heparinized microcentrifuge tubes at 30 min, 1 h, 2 h, 4 h, 8 h, 12 h, 18 h and 24 h as per the Lab Animal Services protocol. Plasma was immediately isolated after blood collection by centrifugation. For the topotecan assay, 10 μl plasma was immediately precipitated with 20 μl methanol and centrifuged. The supernatant and rest of the plasma were stored at […] until analysis.
30 μl of supernatant was injected into the HPLC system, which consisted of Phenomenox C18 (Luna; 150×4.6 mm; particle size 5 microns) column, UV detector (267 nm). The mobile phase was 50:50 mixture of 10 mM potassium phosphate and methanol, with flow rate 1.0 ml/min. The calibration standards were 5, 10, 50, 100 and 200 μg/ml.
Assay of topotecan: Prior to analysis, the previously prepared 20 μl methanolic extract was mixed with 50 μl of internal standard solution (5 ng/ml d6 topotecan dissolved 1% formic acid in acetonitrile). The mixture was then centrifuged and the supernatant was transferred to auto-sampler vials.
The LC/MS system consisted of an HPLC (Agilent Infinity 1290), Column (Kinetex HILIC, 2.6u, 100A, 50×4.6 mm) and a mass spectrometer (Sciex 5500-QTrap). The analytes were eluted by gradient flow. Mobile phase A was water:actonitrile (10:90) and mobile phase B was 10 mM ammonium acetate (pH 3.2). The mobile phase ratio was 5% A for 0-2 min, 20% A for 4-6 min and 5% A for 8-10 min at a flow rate 0.5 ml/min. The samples were analyzed by positive ion electrospray ionization technique in multiple reaction monitoring modes. The following mass transitions were monitored: 422.2 to 377 m/z, (topotecan M+H) and 428.2 to 377 m/z (topotecan d6 M+H). The calibration standard range was 0.5 ng/ml to 10 ng/ml.

NB12 xenograft = test: NB12 TIC xenograft model; assay type: in vivo, NOD/SCID mice; settings: for tumor growth compared to control: daily oral gavage, TP 1.0 mg/Kg, PZ 150 mg/Kg, TP+PZ both
Procedure: (§5) 1×10^6 SK-N-BE(2) cells or 30,000 NB12 cells were implanted subcutaneously into the inguinal fat pad of each of non-obese diabetic/severe combined immune deficient (NOD/SCID) mice. […] The criteria for end point were tumor sizes exceeding 2.0 cms in diameter or animals showing signs of morbidity. The tumor sizes were measured on a daily basis until the end point or sacrifice. The long (D) and short diameters (d) were measured with calipers. Tumor volume (cm^3) was calculated as V=0.5×D×d^2. When end point was reached, the animals were sacrificed by cervical dislocation. Tumors were excised and were fixed in 10% formalin solution.

SK-N-BE(2) xenograft = test: SK-N-BE(2) neuroblastoma xenograft model; assay type: in vivo, NOD/SCID mice; settings: for survival compared to control: daily oral gavage 56 days, TP 1.0 mg/Kg topotecan, PZ 150 mg/Kg pazopanib, TP+PZ both
Procedure: as §5
In the group of animals implanted with SK-N-BE(2) cells palpable tumors started appearing approximately two weeks after cell implantation and took an additional week to reach 0.5 cm in diameter, after which the treatment was started. The effect of treatment was assessed by measuring regression of tumors and by survival times. Drugs were administered daily over a period of 56 days, and the animals belonging to the TP+PZ group were also retreated from the 103rd day to evaluate the impact of resuming treatment on reversing drug resistance. Retreatment was continued until the 125th day, after which the mice were sacrificed.

## CC[C@@]1(O)C(=O)OCc2c1cc1n(c2=O)Cc2cc3c(CN(C)C)c(O)ccc3nc2-1 [topotecan]
[1]; Homo sapiens, SH-SY5Y, topotecan alone
  IC50: 5.3 ng/mL (≈ 0.0126 µM)
[2]; topotecan alone
  IC50: 0.065 µg/mL (≈ 0.154 µM)
[2]; topotecan with addition of 5000 ng/ml pazopanib, P=0.046
  IC50: 0.0351 µg/mL (≈ 0.0833 µM)
Rh30 xenograft; LDM topotecan 1.0 mg/kg daily oral
  efficacy relative to PZ, TP+PZ and intermittent dosing: less effective
Rh30 xenograft
  tumor growth rate: delayed the tumor growth rate
[3]; 72 h treatment
  cell viability / cytotoxicity: dose-dependent reduction
[4]; 72 h treatment
  cell viability / cytotoxicity: dose-dependent reduction
[5]; 72 h treatment
  cell viability / cytotoxicity: dose-dependent reduction
[6]; TP group
  trough concentration of topotecan: 0.77 ng/mL
[6]; TP group, single oral 1.0 mg/Kg topotecan
  peak plasma concentration of topotecan: 19.75 ng/mL
[6]; TP+PZ group
  peak plasma concentration of topotecan: 33.05 ng/mL
  trough concentration of topotecan: 2.79 ng/mL
NB12 xenograft; daily oral gavage until day 83, P<0.005
  survival compared to control and PZ groups: significantly enhanced
NB12 xenograft
  tumor growth compared to control: significantly reduced
SK-N-BE(2) xenograft; TP 1.0 mg/Kg vs PZ 150 mg/Kg, daily oral
  tumor growth rate, TP versus PZ group: No significant difference
SK-N-BE(2) xenograft
  survival compared to control: significantly enhanced survival

## Cc1ccc(Nc2nccc(N(C)c3ccc4c(C)n(C)nc4c3)n2)cc1S(N)(=O)=O [pazopanib, 5-[[4-[(2,3-dimethyl-2H-indazol-6-yl)methylamino]-2-pyrimidinyl]amino]-2-methylbenzenesulfonamide]
[1]; up to 5000 ng/ml
  viability of SH-SY5Y: did not affect the viabilities
[2]; up to 5000 ng/ml, 72 h
  viability of SK-N-BE(2): did not affect the viabilities
Rh30 xenograft
  tumor growth rate: delayed the tumor growth rate
[3]
  cell viability / cytotoxicity: did not show cytotoxicity
[4]
  cell viability / cytotoxicity: did not show cytotoxicity
[5]
  cell viability / cytotoxicity: did not show cytotoxicity
[6]; PZ group
  time optimal plasma concentration of pazopanib was maintained: at least 18 h
[6]; PZ group, single oral 150 mg/Kg pazopanib
  time to peak plasma concentration of pazopanib: 2 h
[6]; TP+PZ group
  time optimal plasma concentration of pazopanib was maintained: at least 18 h
[6]; TP+PZ group, single oral 150 mg/Kg pazopanib+1.0 mg/Kg topotecan
  time to peak plasma concentration of pazopanib: 2 h
NB12 xenograft
  tumor growth compared to control: No significant difference
SK-N-BE(2) xenograft
  survival compared to control: significantly enhanced survival
